Data as given in the supplement of paper PMC10627819.

Tests used:
B. subtilis 168 [1] = test: Bliss interaction score (quartile over a dose matrix) (fitness difference); higher = more antagonism (negative = synergy)
Summary of the method: (§1)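 Fitness here means normalised growth, inferred for single drugs from the combination data. Growth was OD595 at entry into stationary phase, divided by the plate's robust no-drug mean and capped at 1. The Bliss score is observed minus expected fitness, with the expectation being the product, and its quartiles span technical, biological and donor/recipient replicates.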

S. aureus Newman = test: as above
Summary of the method: as §1

S. pneumoniae D39V = test: as above
Summary of the method: as §1

S. aureus DSM 20231 = test: as above
Summary of the method: as §1

B. subtilis 168 [2] = test: fitness (endpoint OD595 vs no drug) (fraction); higher = more growth
Summary of the method: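 Bacterial growth was followed in 384-well plates seeded at OD595 0.01, with 30 µl per well, or 55 µl for S. pneumoniae, in TSB, LB Lennox or CY at 37 °C. OD595 was read every 30 min for 14 h, and each reading had the first reading subtracted as background. Fitness is the background-corrected optical density at entry into stationary phase divided by the robust mean of the no-drug control wells. This ratio is capped at 1.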
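Wherever Bliss interaction score (quartile over a dose matrix) is given: first quartile when negative (synergy) and third quartile when positive (antagonism).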

CC[C@H](C)[C@H](N)C1=N[C@H](C(=O)N[C@@H](CC(C)C)C(=O)N[C@H](CCC(=O)O)C(=O)N[C@H](C(=O)N[C@H]2CCCCNC(=O)[C@H](CC(N)=O)NC(=O)[C@@H](CC(=O)O)NC(=O)[C@H](Cc3cnc[nH]3)NC(=O)[C@@H](Cc3ccccc3)NC(=O)[C@H]([C@@H](C)CC)NC(=O)[C@@H](CCCN)NC2=O)[C@@H](C)CC)CS1 [Bacitracin] + CCC(C)C1C(=O)NC(=C)C(=O)NC(C(=O)NC(CSCC(C(=O)N1)NC(=O)/C(=C/C)/NC(=O)C(C(C)CC)N)C(=O)NC2C(SCC(NC(=O)CNC(=O)C3CCCN3C2=O)C(=O)NC(CCCCN)C(=O)NC4C(SCC(NC(=O)CNC(=O)C(NC(=O)C(NC(=O)C(NC(=O)CNC4=O)C)CC(C)C)CCSC)C(=O)NC(CC(=O)N)C(=O)NC(CCSC)C(=O)NC(CCCCN)C(=O)NC5C(SCC6C(=O)NC(C(=O)NC(CSC(C(C(=O)N6)NC(=O)C(NC5=O)C)C)C(=O)NC(CO)C(=O)NC(C(C)CC)C(=O)NC(CC7=CN=CN7)C(=O)NC(C(C)C)C(=O)NC(=C)C(=O)NC(CCCCN)C(=O)O)CC8=CN=CN8)C)C)C)CC(C)C [Nisin]
main component drawn
Conditions | Bliss interaction score
B. subtilis 168 [1] | -0.191
S. aureus DSM 20231 | -0.0406
S. aureus Newman | 0.112
S. pneumoniae D39V | -0.0689

fitness, B. subtilis 168 [2], main component drawn
Conditions | first compound 37.5 µg/mL | first compound 75 µg/mL | first compound 150 µg/mL
partner 0.5 µg/mL | 0.78 | 0.711 | 0.516
partner 1 µg/mL | 0.754 | 0.575 | 0.269
partner 2 µg/mL | 0.473 | 0.165 | 0.0302

fitness, B. subtilis 168 [2], one replicate, main component drawn
Conditions | partner 1.25 µg/mL | partner 1.6 µg/mL | partner 2.5 µg/mL | partner 3.2 µg/mL | partner 4 µg/mL | partner 5 µg/mL | partner 6.4 µg/mL | partner 8 µg/mL | partner 16 µg/mL
first compound 37.5 µg/mL | 0.807 | 0.409 | 0.293 | 0.0184 | 0.0266 | 0.0118 | 0.0283 | 0.0124 | 0.0057
first compound 75 µg/mL | 0.809 | 0.178 | 0.0249 | 0.0153 | 0.116 | 0.0085 | 0.0276 | 0.0348 | 0.0088
first compound 150 µg/mL | 0.611 | 0.0142 | 0.0156 | 0.0131 | 0.0334 | 0.0106 | 0.0205 | 0.0221 | 0.0151

CC[C@H](C)[C@H](N)C1=N[C@H](C(=O)N[C@@H](CC(C)C)C(=O)N[C@H](CCC(=O)O)C(=O)N[C@H](C(=O)N[C@H]2CCCCNC(=O)[C@H](CC(N)=O)NC(=O)[C@@H](CC(=O)O)NC(=O)[C@H](Cc3cnc[nH]3)NC(=O)[C@@H](Cc3ccccc3)NC(=O)[C@H]([C@@H](C)CC)NC(=O)[C@@H](CCCN)NC2=O)[C@@H](C)CC)CS1 [Bacitracin] + CCC[C@@H]1C[C@@H](C(=O)N[C@@H]([C@H]2O[C@H](SC)[C@H](O)[C@@H](O)[C@H]2O)[C@@H](C)O)N(C)C1 [Lincomycin]
main component drawn
Conditions | Bliss interaction score
B. subtilis 168 [1] | 0.0963
S. aureus DSM 20231 | -0.046
S. aureus Newman | 0.104
S. pneumoniae D39V | -0.0546

fitness, B. subtilis 168 [2], main component drawn
Conditions | first compound 37.5 µg/mL | first compound 75 µg/mL | first compound 150 µg/mL
partner 0.1 µg/mL | 0.955 | 0.915 | 0.896
partner 0.2 µg/mL | 0.919 | 0.832 | 0.733
partner 0.4 µg/mL | 0.86 | 0.827 | –

fitness, B. subtilis 168 [2], one replicate, main component drawn
Conditions | first compound 37.5 µg/mL | first compound 75 µg/mL | first compound 150 µg/mL
partner 0.8 µg/mL | 0.764 | 0.74 | 0.389
partner 1.6 µg/mL | 0.769 | 0.686 | 0.439

CC[C@H](C)[C@H](N)C1=N[C@H](C(=O)N[C@@H](CC(C)C)C(=O)N[C@H](CCC(=O)O)C(=O)N[C@H](C(=O)N[C@H]2CCCCNC(=O)[C@H](CC(N)=O)NC(=O)[C@@H](CC(=O)O)NC(=O)[C@H](Cc3cnc[nH]3)NC(=O)[C@@H](Cc3ccccc3)NC(=O)[C@H]([C@@H](C)CC)NC(=O)[C@@H](CCCN)NC2=O)[C@@H](C)CC)CS1 [Bacitracin] + CN(C)C(=O)C(CCN1CCC(O)(c2ccc(Cl)cc2)CC1)(c1ccccc1)c1ccccc1 [Loperamide]
main component drawn
Conditions | Bliss interaction score
B. subtilis 168 [1] | -0.13
S. aureus DSM 20231 | -0.0677
S. aureus Newman | -0.0942
S. pneumoniae D39V | 0.1

fitness, B. subtilis 168 [2], main component drawn
Conditions | first compound 37.5 µg/mL | first compound 75 µg/mL | first compound 150 µg/mL
partner 25 µg/mL | 0.598 | – | –
partner 50 µg/mL | – | 0.0219 | 0.0315
partner 100 µg/mL | 0.0325 | 0.0281 | 0.0237

CC[C@H](C)[C@H](N)C1=N[C@H](C(=O)N[C@@H](CC(C)C)C(=O)N[C@H](CCC(=O)O)C(=O)N[C@H](C(=O)N[C@H]2CCCCNC(=O)[C@H](CC(N)=O)NC(=O)[C@@H](CC(=O)O)NC(=O)[C@H](Cc3cnc[nH]3)NC(=O)[C@@H](Cc3ccccc3)NC(=O)[C@H]([C@@H](C)CC)NC(=O)[C@@H](CCCN)NC2=O)[C@@H](C)CC)CS1 [Bacitracin] + CO[C@@H]1[C@@H](OC(N)=O)[C@@H](O)[C@H](Oc2ccc3c(O)c(NC(=O)c4ccc(O)c(CC=C(C)C)c4)c(=O)oc3c2C)OC1(C)C [Novobiocin]
main component drawn
Conditions | Bliss interaction score
B. subtilis 168 [1] | 0.126
S. aureus DSM 20231 | -0.0399
S. aureus Newman | -0.0809
S. pneumoniae D39V | 0.0678

fitness, B. subtilis 168 [2], main component drawn
Conditions | first compound 37.5 µg/mL | first compound 75 µg/mL | first compound 150 µg/mL
partner 0.0125 µg/mL | ≥ 1 | 0.97 | 0.946
partner 0.025 µg/mL | 0.988 | ≥ 1 | 0.941
partner 0.05 µg/mL | ≥ 1 | 0.964 | 0.935

fitness, B. subtilis 168 [2], one replicate, main component drawn
Conditions | partner 0.1 µg/mL | partner 0.125 µg/mL | partner 0.2 µg/mL | partner 0.25 µg/mL | partner 0.5 µg/mL
first compound 37.5 µg/mL | 0.817 | 0.917 | 0.861 | 0.894 | 0.431
first compound 75 µg/mL | 0.763 | 0.959 | 0.804 | 0.922 | 0.293
first compound 150 µg/mL | 0.534 | 0.861 | 0.63 | 0.559 | 0.164

CC[C@H](C)[C@H](N)C1=N[C@H](C(=O)N[C@@H](CC(C)C)C(=O)N[C@H](CCC(=O)O)C(=O)N[C@H](C(=O)N[C@H]2CCCCNC(=O)[C@H](CC(N)=O)NC(=O)[C@@H](CC(=O)O)NC(=O)[C@H](Cc3cnc[nH]3)NC(=O)[C@@H](Cc3ccccc3)NC(=O)[C@H]([C@@H](C)CC)NC(=O)[C@@H](CCCN)NC2=O)[C@@H](C)CC)CS1 [Bacitracin] + COc1cc(Cc2cnc(N)nc2N)cc(OC)c1OC [Trimethoprim]
main component drawn
Conditions | Bliss interaction score
B. subtilis 168 [1] | 0.0858
S. aureus DSM 20231 | 0.013
S. aureus Newman | -0.08
S. pneumoniae D39V | -0.0391

fitness, B. subtilis 168 [2], one replicate, main component drawn
Conditions | partner 0.1 µg/mL | partner 0.2 µg/mL | partner 0.4 µg/mL | partner 1 µg/mL | partner 2 µg/mL
first compound 37.5 µg/mL | 0.925 | 0.65 | 0.508 | 0.462 | 0.24
first compound 75 µg/mL | 0.898 | 0.715 | 0.532 | 0.441 | 0.235
first compound 150 µg/mL | 0.875 | 0.71 | 0.499 | 0.348 | 0.219

fitness, B. subtilis 168 [2], main component drawn
Conditions | first compound 37.5 µg/mL | first compound 75 µg/mL | first compound 150 µg/mL
partner 0.125 µg/mL | 0.615 | 0.593 | 0.338
partner 0.5 µg/mL | 0.518 | – | –

CC[C@H](C)[C@H](N)C1=N[C@H](C(=O)N[C@@H](CC(C)C)C(=O)N[C@H](CCC(=O)O)C(=O)N[C@H](C(=O)N[C@H]2CCCCNC(=O)[C@H](CC(N)=O)NC(=O)[C@@H](CC(=O)O)NC(=O)[C@H](Cc3cnc[nH]3)NC(=O)[C@@H](Cc3ccccc3)NC(=O)[C@H]([C@@H](C)CC)NC(=O)[C@@H](CCCN)NC2=O)[C@@H](C)CC)CS1 [Bacitracin] + C[C@H]1COc2c(N3CCN(C)CC3)c(F)cc3c(=O)c(C(=O)O)cn1c23 [Levofloxacin]
main component drawn
Conditions | Bliss interaction score
B. subtilis 168 [1] | 0.0288
S. aureus DSM 20231 | 0.034
S. aureus Newman | -0.043
S. pneumoniae D39V | -0.072

fitness, B. subtilis 168 [2], one replicate, main component drawn
Conditions | first compound 37.5 µg/mL | first compound 75 µg/mL | first compound 150 µg/mL
partner 0.001 µg/mL | 0.94 | 0.969 | 0.728
partner 0.0078 µg/mL | 0.842 | 0.844 | 0.439

fitness, B. subtilis 168 [2], main component drawn
Conditions | partner 0.002 µg/mL | partner 0.0039 µg/mL | partner 0.0312 µg/mL | partner 0.0625 µg/mL | partner 0.125 µg/mL
first compound 37.5 µg/mL | 0.812 | 0.851 | 0.0268 | 0.0345 | 0.0392
first compound 75 µg/mL | 0.851 | 0.818 | 0.0206 | 0.0236 | 0.0256
first compound 150 µg/mL | 0.527 | 0.55 | 0.0178 | 0.0214 | 0.0173

CC[C@H](C)[C@H](N)C1=N[C@H](C(=O)N[C@@H](CC(C)C)C(=O)N[C@H](CCC(=O)O)C(=O)N[C@H](C(=O)N[C@H]2CCCCNC(=O)[C@H](CC(N)=O)NC(=O)[C@@H](CC(=O)O)NC(=O)[C@H](Cc3cnc[nH]3)NC(=O)[C@@H](Cc3ccccc3)NC(=O)[C@H]([C@@H](C)CC)NC(=O)[C@@H](CCCN)NC2=O)[C@@H](C)CC)CS1 [Bacitracin] + C[C@H]1c2cccc(O)c2C(=O)C2=C(O)[C@]3(O)C(=O)C(C(N)=O)=C(O)[C@@H](N(C)C)[C@@H]3[C@@H](O)[C@@H]21 [Doxycycline]
main component drawn
Conditions | Bliss interaction score
B. subtilis 168 [1] | -0.0867
S. aureus DSM 20231 | 0.101
S. aureus Newman | -0.0186
S. pneumoniae D39V | 0.0989

fitness, B. subtilis 168 [2], main component drawn
Conditions | first compound 37.5 µg/mL | first compound 75 µg/mL | first compound 150 µg/mL
partner 0.02 µg/mL | 0.844 | 0.81 | –
partner 0.04 µg/mL | 0.716 | 0.664 | 0.48
partner 0.08 µg/mL | 0.476 | 0.218 | 0.0689

CC(=O)NC[C@H]1CN(c2ccc(N3CCOCC3)c(F)c2)C(=O)O1 [Linezolid] + CO[C@@H]1[C@@H](OC(N)=O)[C@@H](O)[C@H](Oc2ccc3c(O)c(NC(=O)c4ccc(O)c(CC=C(C)C)c4)c(=O)oc3c2C)OC1(C)C [Novobiocin]
Conditions | Bliss interaction score
B. subtilis 168 [1] | 0.046
S. aureus DSM 20231 | 0.0424
S. aureus Newman | 0.0413
S. pneumoniae D39V | -0.123

fitness, B. subtilis 168 [2], one replicate
Conditions | partner 0.05 µg/mL | partner 0.1 µg/mL | partner 0.125 µg/mL | partner 0.2 µg/mL | partner 0.25 µg/mL | partner 0.5 µg/mL
first compound 0.0625 µg/mL | 0.871 | 0.925 | – | 0.885 | – | –
first compound 0.125 µg/mL | – | 0.595 | 0.846 | 0.554 | 0.727 | 0.578
first compound 0.25 µg/mL | – | 0.0625 | 0.349 | 0.0582 | 0.218 | 0.242
first compound 0.5 µg/mL | – | – | 0.069 | – | 0.0496 | 0.0575

fitness, B. subtilis 168 [2]
Conditions | first compound 0.125 µg/mL | first compound 0.25 µg/mL | first compound 0.5 µg/mL
partner 0.0125 µg/mL | 0.659 | 0.23 | 0.0324
partner 0.025 µg/mL | 0.574 | 0.182 | 0.0304
partner 0.05 µg/mL | 0.597 | 0.0885 | 0.0285
